Counter-ions that a name gives are not always drawn.
system: RSV Long strain; assay: Viral cytopathic effect (CPE) assay, anti-RSV activity; format: cell-based, Respiratory Syncytial Virus; conditions: human respiratory syncytial virus, 144 h, RSV Long strain (ATCC); cell viability after 6 days, Cell Counting kit-8
Procedure, shortened: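 EC50 was derived from CCK-8 viability at 450/630 nm measured 6 days post-infection. Infection used enough RSV Long strain for approximately 80–90% cytopathic effect, in the presence of half-log serially diluted compound. Cells were plated the day before at 6×10^3 per well in DMEM/10% FBS.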

SMILES | EC50 [µM]
Cc1ccc2nc(N3CCS(=O)(=O)c4ccccc4C3)cc(N3CCC(C)(O)C3)c2c1 (centres unmarked) [Example 3-45, 1-[2-(1,1-Dioxido-2,3-dihydro-1,4-benzothiazepin-4(5H)-yl)-6-methylquinolin-4-yl]-3-methylpyrrolidin-3-ol] | 5.23
Cc1ccc2nc(N3CCS(=O)(=O)c4ccccc4C3)cc(NCC3COC3)c2c1 [Example 3-53, 2-(1,1-Dioxido-2,3-dihydro-1,4-benzothiazepin-4(5H)-yl)-6-methyl-N-(oxetan-3-ylmethyl)quinolin-4-amine] | 0.261
Cc1ccc2nc(N3CCS(=O)(=O)c4ccccc4C3)cc(NCCCCCCN)c2c1 [Example 3-56, N-[2-(1,1-Dioxido-2,3-dihydro-1,4-benzothiazepin-4(5H)-yl)-6-methylquinolin-4-yl]hexane-1,6-diamine] | 0.716
Cc1ccc2nc(N3CCS(=O)(=O)c4ccccc4C3)cc(NS(=O)(=O)C(F)(F)F)c2c1 [Example 3-57, N-[2-(1,1-Dioxido-2,3-dihydro-1,4-benzothiazepin-4(5H)-yl)-6-methylquinolin-4-yl]-1,1,1-trifluoromethanesulfonamide hydrochloride] | 7.53
Cc1ccc2nc(N3CCS(=O)(=O)c4ccccc4C3)cc(NC(=O)c3ccccc3)c2c1 [Example 3-59, N-[2-(1,1-Dioxido-2,3-dihydro-1,4-benzothiazepin-4(5H)-yl)-6-methylquinolin-4-yl]benzamide] | 1.08
CC(=O)Nc1cc(N2CCS(=O)(=O)c3ccccc3C2)nc2ccc(C)cc12 [Example 3-60, N-[2-(1,1-Dioxido-2,3-dihydro-1,4-benzothiazepin-4(5H)-yl)-6-methylquinolin-4-yl]acetamide] | 0.617
Cc1ccc2nc(N3CCS(=O)(=O)c4ccccc4C3)cc(NC(=O)C3CCNCC3)c2c1 [Example 3-62, N-[2-(1,1-Dioxido-2,3-dihydro-1,4-benzothiazepin-4(5H)-yl)-6-methylquinolin-4-yl]piperidine-4-carboxamide] | 0.589
Cc1ccc2nc(N3CCS(=O)(=O)c4ccccc4C3)cc(NC(=O)N(C)C)c2c1 [Example 3-63, 3-[2-(1,1-Dioxido-2,3-dihydro-1,4-benzothiazepin-4(5H)-yl)-6-methylquinolin-4-yl]-1,1-dimethylurea] | 9.9
Cc1ccc2nc(N3CCS(=O)(=O)c4ccccc4C3)cc(Nc3ccon3)c2c1 [Example 3-64, 2-(1,1-Dioxido-2,3-dihydro-1,4-benzothiazepin-4(5H)-yl)-6-methyl-N-(1,2-oxazol-3-yl)quinolin-4-amine] | 0.874
NC1(CNc2cc(N3CCSc4ccccc4C3)nc3ccc(Cl)cc23)COC1 [Example 4-1, N-[(3-Aminooxetan-3-yl)methyl]-6-chloro-2-(2,3-dihydro-1,4-benzothiazepin-4(5H)-yl)quinolin-4-amine] | 0.269
Cc1ccc2nc(N3CCSc4ccccc4C3)cc(N3CCC(N)C3)c2c1 (centres unmarked) [Example 4-4, 1-[2-(2,3-Dihydro-1,4-benzothiazepin-4(5H)-yl)-6-methylquinolin-4-yl]pyrrolidin-3-amine] | 0.208

Now those with a lower EC50, led by results:

EC50 [µM] | SMILES
0.184 | Cc1ccc2nc(N3CCS(=O)(=O)c4ccccc4C3)cc(NC(=O)c3cccnn3)c2c1 [Example 3-58, N-[2-(1,1-Dioxido-2,3-dihydro-1,4-benzothiazepin-4(5H)-yl)-6-methylquinolin-4-yl]pyridazine-3-carboxamide]
0.118 | Cc1ccc2nc(N3CCS(=O)(=O)c4ccccc4C3)cc(NC(=O)C3CCCNC3)c2c1 (centres unmarked) [Example 3-61, N-[2-(1,1-Dioxido-2,3-dihydro-1,4-benzothiazepin-4(5H)-yl)-6-methylquinolin-4-yl]piperidine-3-carboxamide]
0.114 | Cc1ccc2nc(N3CCS(=O)(=O)c4ccccc4C3)cc(NCC3(N)CCC3)c2c1 [Example 3-54, N-[(1-Aminocyclobutyl)methyl]-2-(1,1-dioxido-2,3-dihydro-1,4-benzothiazepin-4(5H)-yl)-6-methylquinolin-4-amine]
0.101 | Cc1ccc2nc(N3CCS(=O)(=O)c4ccccc4C3)cc(NC3COC3)c2c1 [Example 3-47, 2-(1,1-Dioxido-2,3-dihydro-1,4-benzothiazepin-4(5H)-yl)-6-methyl-N-(oxetan-3-yl)quinolin-4-amine]
0.099 | Cc1ccc2nc(N3CCS(=O)(=O)c4ccccc4C3)cc(N[C@@H]3CCOC3)c2c1 [Example 3-49, 2-(1,1-Dioxido-2,3-dihydro-1,4-benzothiazepin-4(5H)-yl)-6-methyl-N-[(3R)-tetrahydrofuran-3-yl]quinolin-4-amine]
0.098 | NCCNc1cc(N2CCSc3ccccc3C2)nc2ccc(Cl)cc12 [Example 4-2, N-[6-Chloro-2-(2,3-dihydro-1,4-benzothiazepin-4(5H)-yl)quinolin-4-yl]ethane-1,2-diamine]
0.053 | NCCNc1cc(N2CCS(=O)(=O)c3ccccc3C2)nc2ccc(Cl)cc12 [Example 3-46, N-[6-Chloro-2-(1,1-dioxido-2,3-dihydro-1,4-benzothiazepin-4(5H)-yl)quinolin-4-yl]ethane-1,2-diamine]
0.027 | Cc1ccc2nc(N3CCS(=O)(=O)c4ccccc4C3)cc(NCCCCCN)c2c1 [Example 3-55, N-[2-(1,1-Dioxido-2,3-dihydro-1,4-benzothiazepin-4(5H)-yl)-6-methylquinolin-4-yl]pentane-1,5-diamine]
0.026 | Cc1ccc2nc(N3CCSc4ccccc4C3)cc(NCC3(N)COC3)c2c1 [Example 4-3, N-[(3-Aminooxetan-3-yl)methyl]-2-(2,3-dihydro-1,4-benzothiazepin-4(5 H)-yl)-6-methylquinolin-4-amine]
0.023 | NC1(CNc2cc(N3CCS(=O)(=O)c4ccccc4C3)nc3ccccc23)COC1 [Example 3-48, N-[(3-Aminooxetan-3-yl)methyl]-2-(1,1-dioxido-2,3-dihydro-1,4-benzothiazepin-4(5H)-yl)quinolin-4-amine]
0.012 | COCCNCCNc1cc(N2CCS(=O)(=O)c3ccccc3C2)nc2ccc(C)cc12 [Example 3-44, N-[2-(1,1-Dioxido-2,3-dihydro-1,4-benzothiazepin-4(5H)-yl)-6-methylquinolin-4-yl]-N′-(2-methoxyethyl)ethane-1,2-diamine]
0.005 | NCC1(CNc2cc(N3CCS(=O)(=O)c4ccccc4C3)nc3ccccc23)COC1 [Example 3-52, N-{[3-(Aminomethyl)oxetan-3-yl]methyl}-2-(1,1-dioxido-2,3-dihydro-1,4-benzothiazepin-4(5H)-yl)quinolin-4-amine]
0.004 | NCC1(CNc2cc(N3CCS(=O)(=O)c4ccccc4C3)nc3ccc(Cl)cc23)COC1 [Example 3-51, N-{[3-(Aminomethyl)oxetan-3-yl]methyl}-6-chloro-2-(1,1-dioxido-2,3-dihydro-1,4-benzothiazepin-4(5H)-yl)quinolin-4-amine]
0.002 | [2H]C([2H])([2H])c1ccc2nc(N3CCS(=O)(=O)c4ccccc4C3)cc(NCC3(CN)COC3)c2c1 [Example 3-65, N-{[3-(Aminomethyl)oxetan-3-yl]methyl}-2-(1,1-dioxido-2,3-dihydro-1,4-benzothiazepin-4(5H)-yl)-6-trideuteriomethylquinolin-4-amine]
0.0004 | Cc1ccc2nc(N3CCS(=O)(=O)c4ccccc4C3)cc(NCC3(CN)COC3)c2c1 [Example 3-50, N-{[3-(Aminomethyl)oxetan-3-yl]methyl}-2-(1,1-dioxido-2,3-dihydro-1,4-benzothiazepin-4(5H)-yl)-6-methylquinolin-4-amine]

Reference: patent US8871756B2 (Hoffmann-La Roche Inc., priority 2011, dated 2014)
